According to patent US11420968B2 (priority 2018, dated 2022):

Experiments:
Bcl-2 [1] = target: T1, Bcl-2 (Homo sapiens (Human), UniProt P10415); assay: biochemical; conditions: Biochemical activity (IC50, nM) BCL-2
Bcl-2 [2] = target: T1, Bcl-2

| Structure (SMILES) | IC50 (Bcl-2 [1]) [nM] | folds less potent than its analog in biochemical assay (Bcl-2 [2]) [folds] | folds less potent than its analog in cellular assay (RS4;11 cells) [folds] |
| --- | --- | --- | --- |
| O=C(NS(=O)(=O)c1ccc(NCC2CCOCC2)c([N+](=O)[O-])c1)c1ccc(N2CCC3(CCC(N4CCC[C@H]4c4ccccc4C4CC4)CC3)C2)cc1Oc1cnc2[nH]ccc2c1 (stereo partly drawn) [Example F42, (S)-2-((1H-pyrrolo[2,3-b]pyridin-5-yl)oxy)-4-(8-(2-(2-cyclopropylphenyl)pyrrolidin-1-yl)-2-azaspiro[4.5]decan-2-yl)-N-((3-nitro-4-(((tetrahydro-2H-pyran-4-yl)methyl)amino)phenyl)sulfonyl)benzamide] | 44 |  |  |
| O=C(NS(=O)(=O)c1ccc(NCC2CCOCC2)c([N+](=O)[O-])c1)c1ccc(N2CC3(CN(CC4CCCN4c4ccccc4C4CC4)C3)C2)cc1Oc1cnc2[nH]ccc2c1 (stereo not drawn) [Example F114, 2-((1H-pyrrolo[2,3-b]pyridin-5-yl)oxy)-4-(6-((1-(2-cyclopropylphenyl)pyrrolidin-2-yl)methyl)-2,6-diazaspiro[3.3]heptan-2-yl)-N-((3-nitro-4-(((tetrahydro-2H-pyran-4-yl)methyl)amino)phenyl)sulfonyl)benzamide] |  | 28 to 80 | 15 to 22 |
